Test results as given in ChEMBL document CHEMBL3870314, “Design, synthesis, anticancer, antimicrobial activities and molecular docking studies of theophylline containing acetylenes and theophylline containing 1,2,3-triazoles with variant nucleoside derivatives” (Eur J Med Chem, 2016).
pIC50: −log10 of the molar value. ≈ marks a conversion by molar mass, not a printed value.

Assays:
Pseudomonas aeruginosa = assay: Antimicrobial activity against Pseudomonas aeruginosa ATCC 10145 incubated overnight by two-fold serial dilution method; assay type: functional
[1] = Cytotoxicity against human A549 cells after 48 hrs by MTT assay; assay type: functional, cell-based; details: A549, 48 h
[2] = Cytotoxicity against human HT-29 cells after 48 hrs by MTT assay; assay type: functional, cell-based; details: HT-29, 48 h
Staphylococcus aureus = assay: Antimicrobial activity against Staphylococcus aureus ATCC 25923 incubated overnight by two-fold serial dilution method; assay type: functional
[3] = Cytotoxicity against human A375 cells after 48 hrs by MTT assay; assay type: functional, cell-based; details: A-375, 48 h
Bacillus cereus = assay: Antimicrobial activity against Bacillus cereus ATCC 10876 incubated overnight by two-fold serial dilution method; assay type: functional
[4] = Cytotoxicity against human MCF7 cells after 48 hrs by MTT assay; assay type: functional, cell-based; details: MCF7, 48 h

Structure (SMILES) | MIC (Pseudomonas aeruginosa) | MIC (Staphylococcus aureus) | MIC (Bacillus cereus) | pIC50 [1] | pIC50 [2] | pIC50 [3] | pIC50 [4]
C#CCn1cnc2c1c(=O)n(C)c(=O)n2C | 0.125 mg/L (≈ 0.573 µM) | 0.0625 mg/L (≈ 0.286 µM) | 0.125 mg/L (≈ 0.573 µM) | 3.82 | 3.80 | 3.82 | 3.99
C#CCCCn1cnc2c1c(=O)n(C)c(=O)n2C | 0.125 mg/L (≈ 0.508 µM) | 0.0312 mg/L (≈ 0.127 µM) | 0.125 mg/L (≈ 0.508 µM) | 4.26 | 3.80 | 3.81 | 4.47
Cn1c(=O)c2c(ncn2CC(=O)OCCc2cn(CC3OC(n4ccc(=O)[nH]c4=O)C4OC(C)(C)OC34)nn2)n(C)c1=O (stereo unspecified) |  |  |  | 5.13 | 4.00 | 4.27 | 5.62
CCn1c(=O)ccn(C2OC(Cn3cc(COC(=O)Cn4cnc5c4c(=O)n(C)c(=O)n5C)nn3)C(OC)C2OC)c1=O (stereo unspecified) |  |  |  | 4.25 | 4.23 | 4.20 | 5.57
C#CCCCOC(=O)Cn1cnc2c1c(=O)n(C)c(=O)n2C | 0.0625 mg/L (≈ 0.205 µM) | 0.5 mg/L (≈ 1.64 µM) | 0.0625 mg/L (≈ 0.205 µM) | 4.25 | 4.44 | 3.80 | 3.79
C#CCNC(=O)Cn1cnc2c1c(=O)n(C)c(=O)n2C | 0.0625 mg/L (≈ 0.227 µM) | 0.0156 mg/L (≈ 0.0567 µM) | 0.0625 mg/L (≈ 0.227 µM) | 3.94 | 4.71 | 4.55 | 3.80
C#CCOC(=O)Cn1cnc2c1c(=O)n(C)c(=O)n2C | 0.125 mg/L (≈ 0.452 µM) | 0.0312 mg/L (≈ 0.113 µM) | 0.125 mg/L (≈ 0.452 µM) | 3.81 | 4.17 | 4.47 | 4.47
CCn1c(=O)ccn(C2OC(Cn3cc(COC(=O)CNC(=O)Cn4cnc5c4c(=O)n(C)c(=O)n5C)nn3)C(OC)C2OC)c1=O (stereo unspecified) |  |  |  | 4.28 | 4.13 | 4.11 | 4.22
O=C(O)c1cn(C2CC2)c2cc(N3CCNCC3)c(F)cc2c1=O [CIPROFLOXACIN] | 0.0625 mg/L (≈ 0.189 µM) | 0.0312 mg/L (≈ 0.0943 µM) | 0.0156 mg/L (≈ 0.0471 µM) |  |  |  | 
COc1ccc(/C=C\c2cc(OC)c(OC)c(OC)c2)cc1O [COMBRETASTATIN A4] |  |  |  | 6.96 | 6.03 | 6.68 | 6.74

Now from value to molecule, other results behind:

MIC (Pseudomonas aeruginosa) | MIC (Staphylococcus aureus) | MIC (Bacillus cereus) | Structure (SMILES) | pIC50 [1] | pIC50 [2] | pIC50 [3] | pIC50 [4]
0.0312 mg/L (≈ 0.0509 µM) | 0.125 mg/L (≈ 0.204 µM) | 0.0312 mg/L (≈ 0.0509 µM) | Cn1c(=O)c2c(ncn2CC(=O)OCCCc2cn(CC3OC(n4ccc(=O)[nH]c4=O)C4OC(C)(C)OC34)nn2)n(C)c1=O (stereo unspecified) | 4.84 | 4.91 | 5.08 | 4.51
0.0625 mg/L (≈ 0.0991 µM) | 0.0625 mg/L (≈ 0.0991 µM) | 0.125 mg/L (≈ 0.198 µM) | CCn1c(=O)ccn(C2OC(Cn3cc(COC(=O)CNC(=O)Cn4cnc5c4c(=O)n(C)c(=O)n5C)nn3)C(O)C2O)c1=O (stereo unspecified) | 5.45 | 5.54 | 5.24 | 5.68
0.0625 mg/L (≈ 0.113 µM) | 0.0625 mg/L (≈ 0.113 µM) | 0.0156 mg/L (≈ 0.0281 µM) | Cn1c(=O)c2c(ncn2CCCc2cn(CC3OC(n4ccc(=O)[nH]c4=O)C4OC(C)(C)OC34)nn2)n(C)c1=O (stereo unspecified) | 4.81 | 5.13 | 5.03 | 4.47
0.0625 mg/L (≈ 0.0949 µM) | 0.0312 mg/L (≈ 0.0474 µM) | 0.0312 mg/L (≈ 0.0474 µM) | CCn1c(=O)ccn(C2OC(Cn3cc(COC(=O)C(C)NC(=O)C(C)n4cnc5c4c(=O)n(C)c(=O)n5C)nn3)C(O)C2O)c1=O (stereo unspecified) | 5.81 | 5.57 | 4.28 | 5.42
0.125 mg/L (≈ 0.214 µM) | 0.0312 mg/L (≈ 0.0535 µM) | 0.125 mg/L (≈ 0.214 µM) | Cn1c(=O)c2c(ncn2CC(=O)NCc2cn(CC3OC(n4ccc(=O)[nH]c4=O)C4OC(C)(C)OC34)nn2)n(C)c1=O (stereo unspecified) | 4.27 | 4.24 | 4.24 | 5.67
0.0312 mg/L (≈ 0.0592 µM) | 0.5 mg/L (≈ 0.948 µM) | 0.0312 mg/L (≈ 0.0592 µM) | Cn1c(=O)c2c(ncn2Cc2cn(CC3OC(n4ccc(=O)[nH]c4=O)C4OC(C)(C)OC34)nn2)n(C)c1=O (stereo unspecified) | 5.07 | 4.24 | 4.27 | 4.98
0.0625 mg/L (≈ 0.107 µM) | 0.0312 mg/L (≈ 0.0534 µM) | 0.125 mg/L (≈ 0.213 µM) | Cn1c(=O)c2c(ncn2CC(=O)OCc2cn(CC3OC(n4ccc(=O)[nH]c4=O)C4OC(C)(C)OC34)nn2)n(C)c1=O (stereo unspecified) | 5.44 | 5.21 | 4.25 | 4.63
0.0312 mg/L (≈ 0.0532 µM) | 0.0156 mg/L (≈ 0.0266 µM) | 0.0625 mg/L (≈ 0.106 µM) | CCn1c(=O)ccn(C2OC(Cn3cc(COC(=O)C(C)n4cnc5c4c(=O)n(C)c(=O)n5C)nn3)C(O)C2O)c1=O (stereo unspecified) | 5.54 | 4.20 | 4.16 | 5.67
0.125 mg/L (≈ 0.195 µM) | 0.0312 mg/L (≈ 0.0486 µM) | 0.0156 mg/L (≈ 0.0243 µM) | Cn1c(=O)c2c(ncn2CC(=O)NCC(=O)OCc2cn(CC3OC(n4ccc(=O)[nH]c4=O)C4OC(C)(C)OC34)nn2)n(C)c1=O (stereo unspecified) | 5.25 | 4.23 | 4.22 | 4.90
0.0625 mg/L (≈ 0.109 µM) | 0.0625 mg/L (≈ 0.109 µM) | 0.0625 mg/L (≈ 0.109 µM) | CCn1c(=O)ccn(C2OC(Cn3cc(COC(=O)Cn4cnc5c4c(=O)n(C)c(=O)n5C)nn3)C(O)C2O)c1=O (stereo unspecified) | 5.59 | 5.66 | 5.31 | 5.72
0.0625 mg/L (≈ 0.215 µM) | 0.0625 mg/L (≈ 0.215 µM) | 0.125 mg/L (≈ 0.431 µM) | C#CCCOC(=O)Cn1cnc2c1c(=O)n(C)c(=O)n2C | 3.98 | 3.82 | 3.80 | 4.25
